Columns and labels:
[1] = tested on: VCAM-1 and ICAM-1 protein expression in HUVEC; experiment: Western blot of VCAM-1 and ICAM-1 protein expression induced by TNFα in HUVEC; type: cell-based, human; details: TNFα 6 h, western blot normalised by β-actin
Method: FIGS. 2B and 2C show the effect of Compound 3 on VCAM-1 and ICAM-1 protein expression induced by TNFα in HUVEC after 6 h of incubation. B) Total protein extracts are recovered and analysed by western blot. β-actin serves as the loading control. C) Quantification of optical density of each band. Results are expressed as the ratio between the optical density of VCAM-1 or ICAM-1 and the optical density of β-actin.
HUVEC are seeded at 187,500 cells/flask in gelatin-coated T75 in EGM. After 4 days, cell medium is replaced by EBM containing or not containing Compound 3 at different concentrations. After 1 h of preincubation, 1 ng/ml TNFα is added or is not added into the T75 flasks. 6 h after, cell media are collected and centrifuged at 500 g for 5 min to pellet and pool floating cells with adherent cells. Adherent cells are washed twice with cold PBS and are collected in 1.5 ml of PBS. Harvested cells are then centrifuged at 500 g for 5 min at 4° C. […] Protein concentration is measured using Pierce method (Pierce 660 nm protein assay, Thermoscientific, USA) with the Ionic Detergent Compatibility Reagent (Thermoscientific, USA). […] Antibody binding was analysed with the scanner Odyssey Image System (Li-COR, Biosciences, USA) and Odyssey V3.0 software. Optical density of each band is also determined by using the software.

[2] = tested on: 6-keto PGF1α secretion by HUVEC; experiment: 6-keto PGF1α EIA, secretion by HUVEC; type: cell-based, human; details: HUVEC 6 h
Method: 6-ketoPGF1α secretion is evaluated using a specific EIA assay. Results are expressed in picograms of 6-ketoPGF1α reported to micrograms of proteins measured by the Folin method on cell lysates. Data are means±S.D. (n=3). Statistical analysis: one way ANOVA followed by Bonferroni, Versus CTL, * p<0.05.
HUVEC are seeded at 25,000 cells/well on gelatin-coated 24-well plate (Corning) in EGM. After 48 h, cell medium is replaced by EBM containing or not containing Compound 3 at different concentrations. After 1 h of preincubation, 1 ng/ml TNFα is added or is not added to the wells. 6 h after adding TNFα, medium of each well is collected and cell lysis is performed in NaOH 0.5 N for 30 min. PTX3 secretion in the incubation medium is assayed using specific ELISAs (#DPTX30, Quantikine, R&D Systems, USA) according to the procedure provided by the supplier. 6-ketoPGF1α levels in cell culture media are determined using a competitive assay (#515211, Cayman, USA). Results are expressed in picograms of PTX3 or 6-ketoPGF1α reported to micrograms of proteins measured by the Folin method (Folin-Ciocalteu's phenol reagent, Merck, Germany) in cell lysates.

[3] = tested on: human coronary artery smooth muscle cells; experiment: Human coronary artery smooth muscle cell proliferation (WST-1); type: cell-based; details: growth factor media; Compound 3 50 nM, 500 nM, 5 μM added 1 h before U46619; 48 h; WST-1
Method: Human coronary artery SMC is cultured in SmGM2 kit medium. At 80% confluence, the SMCs are trypsinized and resuspended in either DMEM supplemented with 2% FCS (“low serum media”), or in SmGM2 kit medium containing 5% FCS, 2 ng/ml FGF, 0.5 ng/ml EGF, 5 μg/ml insulin (“growth factor media”). Subsequently, 5000 cells in 200 μL are added to each well in a 96-well plate and left to adhere overnight. Either vehicle or Compound 3 (50 nM, 500 nM, 5 μM) is added to the wells 1 h before U 46619 at different concentrations (0.1 nM to 10 μM) and incubated for another 48 h. All experiments are repeated 3-5 times for each experimental condition.
Cell proliferation is evaluated using WST-1 reagent according to the manufacturer's instructions. In brief, after replacement of phenol red containing media by 200 μL transparent serum-supplemented DMEM, 10 μL of diluted WST-1 reagent is added to each well at the end of the 48 h incubation period. After 1 h incubation at 37° C., the absorbance of the formazan dye formed is measured at 440 nm using a microplate reader.
All results are expressed as mean±SE. Statistically significant differences are determined by a one-way analysis of variances, followed by Holm-Sidak post hoc test, for multiple comparisons, using Sigma Stat software. A P value of less than 0.05 is considered significant.

[4] = molecular target: T1, TP receptor (Homo sapiens, UniProt P21731); details: 0.125 to 2.5 mg/kg; cited from earlier work
T1 sequence (P21731 1-343): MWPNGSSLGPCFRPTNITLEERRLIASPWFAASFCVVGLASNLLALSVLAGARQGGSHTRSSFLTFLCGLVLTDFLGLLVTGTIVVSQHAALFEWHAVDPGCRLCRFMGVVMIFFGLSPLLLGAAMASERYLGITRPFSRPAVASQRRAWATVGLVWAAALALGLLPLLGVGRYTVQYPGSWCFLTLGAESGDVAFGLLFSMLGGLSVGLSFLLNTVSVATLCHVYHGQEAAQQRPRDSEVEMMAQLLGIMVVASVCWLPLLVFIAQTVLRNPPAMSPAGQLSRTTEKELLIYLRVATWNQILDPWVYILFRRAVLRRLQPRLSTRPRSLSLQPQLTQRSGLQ

Q: For CC(C)(C)N.O=C(O)CC/C=C\C[C@@H]1CO[C@H](c2ccccc2Cl)O[C@@H]1c1ccccc1O [Compound 3, tert-butylammonium (Z)-6-((2S,4S,5R)-2-(2-chlorophenyl)-4-(2-hydroxyphenyl)-1,3-dioxan-5-yl)hex-4-enoate], which “ICAM-1 protein expression induced by TNFα” value [1] is on record?
A: Its value is “no effect”.

Q: And the “VCAM-1 protein expression induced by TNFα” value [1]?
A: The value was “no effect”.

Q: And the “6-keto PGF1α secretion” value ([2]; 600 nM Compound 3 together with 1 ng/ml TNFα)?
A: The value was “significant increase”.

Q: And the “6-keto PGF1α secretion” value ([2]; Compound 3 alone, without TNFα)?
A: Its value is “do not increase”.

Q: And the “SMC proliferation induced by U46619” value [3]?
A: Its value is “significantly and concentration-dependently inhibits”.

Q: What about the “TP receptor activation in vivo” value [4] of the same compound?
A: The value was “antagonize TP receptor activation in vivo”.

From patent US20160193179A1, “Treatment of Cardiovascular Risk in Diabetic Patients” (EVOLVA SA, priority 2012, published 2016)
